Columns and labels:
[1] = ND0612-001 dose proportionality, 24 hour continuous subcutaneous infusion; format: in vivo, human; settings: healthy male subjects; LD (6% w/w)/CD (1.4% w/w) composition, 24 hour subcutaneous infusion at 80-240 μl/h
Method: Subjects were administered with a composition comprising LD (6% w/w)/CD (1.4% w/w) by way of a 24 hour continuous infusion at varying infusion rates: • Group 1:80 μl/h • Group 2:120 μl/h • Group 3:160 μl/h • Group 4:200 μl/h • Group 5:240 μl/h
Several PK parameters were derived for both LD and CD in the dose proportionality assessment, including AUC (hr*ng/ml), Cmax (ng/ml), C15 (ng/ml), and C24 (ng/mL).

[2] = ND0612-005a/ND0612-005b plasma carbidopa levels after subcutaneous carbidopa doses; format: in vivo, human; settings: 60 mg/ml levodopa with 7.5, 6 or 4 mg/ml carbidopa over 24 hours, 17.9, 26.9, 33.6 mg/24 h carbidopa
Method: In a separate clinical trial (ND0612-005a and ND0612-005b, open label design studies), the plasma carbidopa levels were tested in view of the subcutaneous administration of several carbidopa doses. Three formulations, comprising 60 mg/ml levodopa and (a) 7.5 mg/ml; (b) 6 mg/ml; or 4 mg/ml of carbidopa, were administered to three groups of subjects over the course of 24 hours, providing a total of 17.9 mg/24 h carbidopa to each subject in the first group, 26.9 mg/24 h carbidopa to each subject in the second group and 33.6 mg/24 h carbidopa to each subject in the third group.

Row | dose proportionality of PK parameters (AUC, Cmax, C15, C24) [1] | carbidopa Cmax dose proportionality [2] | Compound
1 | demonstrated dose proportionality | showed clear dose proportionality | C[C@@](Cc1ccc(O)c(O)c1)(NN)C(=O)O [CD, carbidopa]
2 | demonstrated dose proportionality | – | N[C@@H](Cc1ccc(O)c(O)c1)C(=O)O [LD, L-3,4-dihydroxyphenylalanine]
